Like-named read-outs stand apart in the source and are kept apart here.
Columns and labels:
[1] = test system: ABC clinical isolates with SUL-DUR MIC > 4 µg/mL; assay: microbe, parasite or virus in culture; type: cell-based, Acinetobacter baumannii-calcoaceticus complex
How it was run: (§1)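 SUL-DUR combines serially twofold-diluted sulbactam with durlobactam held at 4 µg/mL; MICs obtained by CLSI-standard broth microdilution and read against CLSI breakpoints when these exist.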

[2] = test system: A. baumannii clinical isolates; assay: microbe, parasite or virus in culture; type: cell-based; conditions: Acinetobacter baumannii
How it was run: as §1

[3] = test system: A. nosocomialis clinical isolate; assay: microbe, parasite or virus in culture; type: cell-based; conditions: Acinetobacter nosocomialis, isolate ARC7023 (IHMA 2118812), France, BSI, 2019, read-out: MIC
How it was run: as §1

[4] = test system: A. pittii clinical isolates; assay: microbe, parasite or virus in culture; type: cell-based; conditions: Acinetobacter pittii
How it was run: as §1

A. baumannii PBP3 S390T = test system: A. baumannii PBP3 S390T; design: method as in McLeod et al. (2018); conditions: average ± SD, ref McLeod et al. (2018); cited from earlier work
A. baumannii PBP3 S395F = test system: A. baumannii PBP3 S395F; design: method as in McLeod et al. (2018); conditions: average ± SD, ref McLeod et al. (2018); cited from earlier work
[5] = test system: A. baumannii wild-type PBP3; assay: Acylation rate constant (kinact/Ki), fluorescence anisotropy competition with BOCILLIN; conditions: Wildtype PBP3

C[C@@H](O)[C@H]1C(=O)N2C(C(=O)O)=C(SCCN=CN)C[C@H]12 [imipenem]
32 µg/mL: MIC ([2]; isolate ARC6650 (IHMA 1457337), Argentina, RTI, 2016, read-out: MIC) | MIC ([2]; isolate ARC6805 (IHMA 1558650), United States, RTI, 2017, read-out: MIC)
450 ± 60 ([10]) M^-1s^-1: k inact/K i ([5]; average ± SD)
16 µg/mL: MIC ([1]; Acinetobacter, read-out: MIC Min) | MIC ([2]; isolate ARC6644 (IHMA 1420327), Mexico, UTI, 2016, read-out: MIC)
> 64 µg/mL: MIC50 ([1]; Acinetobacter) | MIC90 ([1]; Acinetobacter) | MIC ([1]; Acinetobacter, read-out: MIC Max) | MIC ([2]; isolate ARC6645 (IHMA 1435703), France, UTI, 2016, read-out: MIC) | MIC ([2]; isolate ARC6647 (IHMA 1386786), Argentina, RTI, 2016, read-out: MIC) | MIC ([2]; isolate ARC6648 (IHMA 1407634), Spain, RTI, 2016, read-out: MIC) | MIC ([2]; isolate ARC6801 (IHMA 1662094), Thailand, RTI, 2017, read-out: MIC) | MIC ([2]; isolate ARC6809 (IHMA 1699528), Guatemala, RTI, 2017, read-out: MIC) | MIC ([2]; isolate ARC6810 (IHMA 1699548), Guatemala, RTI, 2017, read-out: MIC) | MIC ([2]; isolate ARC6813 (IHMA 1699543), Guatemala, UTI, 2017, read-out: MIC) | MIC ([2]; isolate ARC6814 (IHMA 1699512), Guatemala, RTI, 2017, read-out: MIC) | MIC ([2]; isolate ARC6815 (IHMA 1699513), Guatemala, RTI, 2017, read-out: MIC) | MIC ([2]; isolate ARC6816 (IHMA 1699521), Guatemala, RTI, 2017, read-out: MIC) | MIC ([2]; isolate ARC6817 (IHMA 1699523), Guatemala, RTI, 2017, read-out: MIC) | MIC ([2]; isolate ARC6818 (IHMA 1683261), Thailand, RTI, 2017, read-out: MIC) | MIC ([2]; isolate ARC6819 (IHMA 1683267), Thailand, RTI, 2017, read-out: MIC) | MIC ([2]; isolate ARC6821 (IHMA 1699517), Guatemala, RTI, 2017, read-out: MIC) | MIC ([2]; isolate ARC6950 (IHMA 1820064), Israel, RTI, 2018, read-out: MIC) | MIC ([2]; isolate ARC6954 (IHMA 1838192), Guatemala, SSSI, 2018, read-out: MIC) | MIC ([2]; isolate ARC7008 (IHMA 2009813), Thailand, BSI, 2019, read-out: MIC) | MIC ([2]; isolate ARC7009 (IHMA 2043611), United States, UTI, 2019, read-out: MIC) | MIC ([2]; isolate ARC7010 (IHMA 2043398), United States, RTI, 2019, read-out: MIC) | MIC ([2]; isolate ARC7011 (IHMA 2104553), Germany, RTI, 2019, read-out: MIC) | MIC ([2]; isolate ARC7012 (IHMA 2010001), Thailand, RTI, 2019, read-out: MIC) | MIC ([2]; isolate ARC7013 (IHMA 1962831), Argentina, RTI, 2019, read-out: MIC) | MIC ([2]; isolate ARC7016 (IHMA 2148441), Brazil, BSI, 2019, read-out: MIC) | MIC ([2]; isolate ARC7017 (IHMA 2148446), Brazil, BSI, 2019, read-out: MIC) | MIC ([2]; isolate ARC7018 (IHMA 2045454), Guatemala, IAI, 2019, read-out: MIC) | MIC ([2]; isolate ARC7019 (IHMA 2114463), Thailand, RTI, 2019, read-out: MIC) | MIC ([2]; isolate ARC7026 (IHMA 2104494), Guatemala, BSI, 2019, read-out: MIC) | MIC ([2]; isolate ARC7082 (IHMA 2160640), Belgium, BSI, 2020, read-out: MIC) | MIC ([2]; isolate ARC7084 (IHMA 2189596), Germany, RTI, 2020, read-out: MIC) | MIC ([2]; isolate ARC7085 (IHMA 2205747), Guatemala, IAI, 2020, read-out: MIC) | MIC ([2]; isolate ARC7086 (IHMA 2207563), Israel, RTI, 2020, read-out: MIC) | MIC ([2]; isolate ARC7088 (IHMA 2215554), Turkey, BSI, 2020, read-out: MIC) | MIC ([2]; isolate ARC7090 (IHMA 2244410), Poland, RTI, 2020, read-out: MIC) | MIC ([2]; isolate ARC7091 (IHMA 2244564), Australia, RTI, 2020, read-out: MIC) | MIC ([2]; isolate ARC7092 (IHMA 2258772), United States, BSI, 2020, read-out: MIC) | MIC ([2]; isolate ARC7093 (IHMA 2258783), United States, RTI, 2020, read-out: MIC) | MIC ([2]; isolate ARC7156 (IHMA 2455450), Greece, RTI, 2021, read-out: MIC) | MIC ([2]; isolate ARC7158 (IHMA 2523738), Italy, BSI, 2021, read-out: MIC) | MIC ([2]; isolate ARC7159 (IHMA 2456229), Malaysia, RTI, 2021, read-out: MIC) | MIC ([2]; isolate ARC7160 (IHMA 2458626), Thailand, RTI, 2021, read-out: MIC) | MIC ([2]; isolate ARC7161 (IHMA 2429252), Ukraine, RTI, 2021, read-out: MIC) | MIC ([2]; isolate ARC7162 (IHMA 2411847), United States, BSI, 2021, read-out: MIC) | MIC ([2]; isolate ARC7163 (IHMA 2477704), United States, BSI, 2021, read-out: MIC) | MIC ([4]; isolate ARC6949 (IHMA 1898982), Romania, RTI, 2018, read-out: MIC) | MIC ([4]; isolate ARC6951 (IHMA 1776233), Philippines, RTI, 2018, read-out: MIC) | MIC ([4]; isolate ARC6952 (IHMA 1899008), Romania, RTI, 2018, read-out: MIC)
100%: %NS (% non-susceptibility) ([1]; 64 non-clonal ABC isolates, 2023 CLSI breakpoints plus FDA breakpoint of 4 µg/mL for SUL-DUR) | % WT [5]
540 ± 40 ([3]) M^-1s^-1: k inact/K i (A. baumannii PBP3 S390T)
8.8 ± 0.7 ([3]) M^-1s^-1: k inact/K i (A. baumannii PBP3 S395F)
64 µg/mL: MIC ([2]; isolate ARC6646 (IHMA 1484127), United States, RTI, 2016, read-out: MIC) | MIC ([2]; isolate ARC6652 (IHMA 1465642), Belgium, RTI, 2016, read-out: MIC) | MIC ([2]; isolate ARC6653 (IHMA 1308777), Vietnam, RTI, 2016, read-out: MIC) | MIC ([2]; isolate ARC6799 (IHMA 1562935), Spain, UTI, 2017, read-out: MIC) | MIC ([2]; isolate ARC6800 (IHMA 1557526), Turkey, RTI, 2017, read-out: MIC) | MIC ([2]; isolate ARC6802 (IHMA 1557073), Spain, UTI, 2017, read-out: MIC) | MIC ([2]; isolate ARC6803 (IHMA 1589408), Belgium, UTI, 2017, read-out: MIC) | MIC ([2]; isolate ARC6808 (IHMA 1557168), Spain, RTI, 2017, read-out: MIC) | MIC ([2]; isolate ARC6812 (IHMA 1699530), Guatemala, RTI, 2017, read-out: MIC) | MIC ([2]; isolate ARC6820 (IHMA 1647876), Argentina, RTI, 2017, read-out: MIC) | MIC ([2]; isolate ARC6822 (IHMA 1637626), Guatemala, RTI, 2017, read-out: MIC) | MIC ([2]; isolate ARC6823 (IHMA 1620872), Greece, SSSI, 2017, read-out: MIC) | MIC ([2]; isolate ARC6824 (IHMA 1625487), Argentina, BSI, 2017, read-out: MIC) | MIC ([2]; isolate ARC6937 (IHMA 1562926), Spain, UTI, 2017, read-out: MIC) | MIC ([2]; isolate ARC6953 (IHMA 1909827), Turkey, IAI, 2018, read-out: MIC) | MIC ([2]; isolate ARC6955 (IHMA 1825425), United States, RTI, 2018, read-out: MIC) | MIC ([2]; isolate ARC7014 (IHMA 2045328), Guatemala, IAI, 2019, read-out: MIC) | MIC ([2]; isolate ARC7015 (IHMA 2045327), Guatemala, UTI, 2019, read-out: MIC) | MIC ([2]; isolate ARC7020 (IHMA 2045326), Guatemala, RTI, 2019, read-out: MIC) | MIC ([2]; isolate ARC7021 (IHMA 1966347), Guatemala, RTI, 2019, read-out: MIC) | MIC ([2]; isolate ARC7022 (IHMA 2045319), Guatemala, IAI, 2019, read-out: MIC) | MIC ([2]; isolate ARC7024 (IHMA 2059448), Turkey, RTI, 2019, read-out: MIC) | MIC ([2]; isolate ARC7025 (IHMA 2002121), Spain, RTI, 2019, read-out: MIC) | MIC ([2]; isolate ARC7083 (IHMA 2163687), United States, RTI, 2020, read-out: MIC) | MIC ([2]; isolate ARC7089 (IHMA 2240345), Argentina, BSI, 2020, read-out: MIC) | MIC ([2]; isolate ARC7094 (IHMA 2296423), Turkey, RTI, 2020, read-out: MIC) | MIC ([2]; isolate ARC7095 (IHMA 2320843), Turkey, BSI, 2020, read-out: MIC) | MIC [3] | MIC ([4]; isolate ARC7087 (IHMA 2212062), Colombia, BSI, 2020, read-out: MIC)
